Series [1] relates to CaCO-2 cells. The experiment in a line: Viability of CaCO-2 colon adenocarcinoma cells (MTT assay). It counts as cell-based. The following applies: Homo sapiens, Caco-2, 240 h, 10 days, read-out: reduction in the number of viable cells, CaCO-2. The method, then:
(§1) To quantify cell death, around the time when significant and characteristic morphological changes took place, cells were pulse-labeled for 10 minutes with [^3H]thymidine to measure DNA activity as described elsewhere [Tomono, M. and Kiss, Z. (1995), “Ethanol enhances the stimulatory effects of insulin and insulin-like growth factor-I on DNA synthesis in NIH 3T3 fibroblasts,” Biochem. Biophys. Res. Commun. 208, 63-67]. Also, cells were collected as suspensions using trypsin, an established method in cell biology, followed by re-plating of cells in fresh tissue culture medium. If no viable cells were obtained after one week in culture, it meant that the cells at the time of re-plating were dead. Survival values obtained with untreated cells were considered 100%. For the determination of relative number of viable cells after treatments, in most cases the MTT assay was used. This calorimetric assay is based on the ability of living cells, but not dead cells, to reduce 3-(4,5-dimethyl thiazol-2-yl)-2,5-diphenyltetrazolium bromide [Carmichael, J, De Graff, W. G., Gazdar, A. F., Minna, J. D. and Mitchell, J. B. (1987), “Evaluation of tetrazolium-based semi-automated calorimetric assay: Assessment of chemosensitivity testing,” Cancer Res. 47, 936-942]. For this assay, cells were plated in 96-well plates, and the MTT assay was performed both in untreated and treated cell cultures. […]

Series [2] deals with AN3CA cells. The experiment in a line: Viability of AN3CA endometrial adenocarcinoma cells (MTT assay). It counts as cell-based, human. The following applies: 100 μM, 72 hours. The method, then:
as §1

Series [3] can be described thus: Solubility in water.
The subject of series [4] is 966 SK cells. The experiment in a line: Viability of 966 SK skin fibroblasts (MTT assay). It counts as cell-based, human. The following applies: 50 and 100 μM, 72 hours. The method, then:
as §1

Series [5] relates to choline transport. The experiment in a line: [14C]choline uptake and metabolism in AN3CA, MCF-7 and MEL-28 cancer cells. It counts as cell-based, human. The following applies: 100 μM CCDTHT or 0.5 mM HC-3, 2 hours, each cell line. The method, then:
MEL-28 and MCF-7 cells were cultured in MEM medium supplemented with 10% fetal bovine serum (FBS) and in DMEM medium supplemented with 10% FBS, respectively. The AN3CA human endometrial adenocarcinoma cells were maintained in Eagle's MEM containing 10% FBS. Cancer cells were grown up to confluency in 12-well plates in 10% fetal-bovine serum-containing medium, then incubated in the presence of 1 μCi of [methyl-^14C]choline (bought from Amersham; Piscataway, N.J.) for 2 hours. Cells were first rapidly (within 30 seconds) washed three times with 4 ml of serum-free medium, then extracted with ice-cold methanol. This was followed by the determination of cellular free radiolabeled choline and phosphocholine (PCho) by column chromatography as described earlier [Kiss, Z. and Crilly, K. S. (1995), “Tamoxifen inhibits uptake and metabolism of ethanolamine and choline in multidrug-resistant, but not in drug-sensitive, MCF-7 human breast carcinoma cells,” FEBS Lett. 360, 165-168], and the separation and determination of radiolabeled phosphatidylcholine (PtdCho) by thin layer chromatography as indicated in Kiss [Kiss, Z. (1996), “Direct proof that phorbol ester accelerates the use of choline phosphate for phosphatidylcholine synthesis in intact cells,” Arch. Biochem. Biophys. 335, 191-196].
MCF-7 and MEL-28 cells were cultured as described earlier. The AN3CA human endometrial adenocarcinoma cells were maintained in Eagle's MEM containing 10% FBS. Each cell type was grown in 12-well plates to confluency and then incubated with 1 μCi of [methyl-^14C]choline for 2 hours in the absence (□) or presence of 100 μM CCDTHT ? or 0.5 mM HC-3 (▪), followed by the determination of cellular contents of radiolabeled choline (A), PCho (B) and PtdCho (C), as indicated in FIG. 9. […] Thus, if both CCDTHT and HC-3 influenced cell viability solely via inhibition of choline metabolism, then these agents should similarly affect cell viability, at least at the concentrations used in the choline transport experiment.

Where two headings read alike, the source gives them in different places.

With `CC[N+](C)(CC)CCOCc1ccc2sc3ccccc3c(=O)c2c1.[I-]` [CCDTHT, N,N-diethyl-N-methyl-2-[(9-oxo-9H-thioxanthen-2-yl)methoxy]-ethanaminium iodide], the cytotoxicity at 100 µM in series [1] is at most 50%. The “decrease in the number of viable cells versus 0.5 mM HC-3, AN3CA” value in series [2] was “much greater decreases in the number of viable cells compared to 0.5 mM HC-3”. The solubility in water result is reported as “sufficiently soluble in water for injection” in series [3] and “soluble in water” in series [3] (listed as CCompound3). The “sensitivity compared with HaCaT cells, 966 SK fibroblasts” value in series [4] was “significantly less sensitive”. Besides, in series [5], the “inhibitory effects on choline uptake and metabolism (choline, PCho, PtdCho)” value is listed as “comparably strong inhibitory effects”.

(Values after patent US7943606B2, “Compositions and methods to control abnormal cell growth” (CanCure Laboratories, LLC, priority 2005, dated 2011).)
